US7947302B2, “Antithrombotic coating for drug eluting medical devices” (Cordis Corporation, priority 2005, dated 2011)

Legend:
[1] = In vivo release kinetics from rapamycin/mycophenolic acid EVA/BMA basecoat, porcine pharmacokinetics studies (FIG. 53, 54); conditions: 180 micrograms rapamycin, 180 micrograms mycophenolic acid, 240 micrograms EVA/BMA; none, 100 or 200 micrograms BMA topcoat
[2] = tested on: human coronary artery smooth muscle cells; experiment: Anti-proliferative activity of rapamycin with mycophenolic acid, non-synchronized cells, two percent fetal bovine serum (FIG. 52); format: cell-based; conditions: mycophenolic acid zero to one thousand nanomolar; leftward and upward shift
Description: The multiple curves represent various concentrations of mycophenolic acid ranging from zero to one thousand nanomolar concentrations. […] This potentiation observed in cultured coronary artery smooth muscle cells preferably translates to an enhancement in anti-restenotic efficacy following vascular injury and a reduction in the required amount of either agent to achieve the desired anti-restenotic effect.

tumor cell lines = conditions: cited from earlier work
[3] = tested on: human coronary artery smooth muscle cell; experiment: In vitro cell culture study of coronary artery smooth muscle cell proliferation (trichostatin A); format: cell-based
Description: FIG. 51 is a graph of the inhibition of coronary artery smooth muscle cells by trichostatin A in a cell culture study.

[4] = tested on: human coronary artery smooth muscle cells; experiment: Anti-proliferative activity in synchronized cultured cells, two percent fetal bovine serum (FIG. 64-68); format: cell-based
Description: (§1) The multiple curves represent various concentrations of topotecan ranging from zero to three hundred nanomolar concentrations.
(§2) The multiple curves represent various concentrations of etoposide ranging from zero to eight hundred nanomolar concentrations.
Referring to FIG. 66, there is illustrated, in graphical format, the anti-proliferative activity of Panzem® in synchronized cultured human coronary artery smooth muscle cells stimulated with two percent fetal bovine serum.
The multiple curves represent various concentrations of Panzem® ranging from zero to 100 micromolar concentrations.

cell viability = experiment: Cell viability assay; format: cell-based
Description: as §1, §2

[5] = In vivo release kinetics of cladribine from PVDF/HFP coating on Bx Velocity stents (FIG. 61); set-up: species or system Yorkshire pig; conditions: 1800 micrograms basecoat, thirty percent cladribine, 300 micrograms topcoat
Description: FIG. 61 is a graphical representation of the in vivo release kinetics of cladribine from a polymeric coating on BxVelocity® stents, available from Cordis Corporation, implanted in a Yorkshire pig. The basecoat comprises an 85/15 ratio of PVDF and HFP and cladribine for a total combined weight of one thousand eight hundred micrograms (cladribine comprising thirty percent of the total weight). The topcoat comprises an 85/15 ratio of PVDF/HFP and no cladribine. The total weight of the topcoat is three hundred micrograms.

[6] = tested on: human coronary artery smooth muscle cells; experiment: Anti-proliferative activity in non-synchronized cultured cells, two percent fetal bovine serum (FIG. 57, 58); format: cell-based
Description: FIG. 58 illustrates, in graphical format, the anti-proliferative activity of cladribine in non-synchronized cultured human coronary artery smooth muscle cells stimulated with two percent fetal bovine serum.
The multiple curves represent various concentrations of cladribine ranging from zero to nine hundred nanomolar concentrations.

[7] = In vivo release kinetics from rapamycin/cladribine EVA/BMA basecoat, porcine pharmacokinetics studies (FIG. 62, 63); set-up: species or system Yorkshire pigs; conditions: comparison of FIG. 63 with FIG. 62
Description: The basecoat is applied to Bx Velocity® stents and implanted into Yorkshire pigs.
The basecoat is applied to BxVelocity® stents and implanted into Yorkshire pigs.

[8] = tested on: human coronary artery smooth muscle cell; experiment: MTS cytotoxicity assay (FIG. 69); format: cell-based; conditions: concentrations up to 30,000.00 nanomolar (6.6 to 30,000.00 nanomolar tested)
Description: Typically, a control is utilized to determine baseline toxicity.

[9] = In vivo release kinetics from rapamycin/mycophenolic acid PVDF basecoat with PVDF topcoat, porcine pharmacokinetics studies (FIG. 56); conditions: 600 micrograms basecoat, 200 micrograms topcoat
Description: The topcoat is two hundred micro grams.

[10] = Liquid formulations with PEG 200, ethanol and water; concentrations by liquid chromatography; format: physicochemical; conditions: liquid formulation comprising 4 mg/ml of sirolimus
Description: In accordance with exemplary embodiments of the present invention, a series of liquid formulations were developed for the local or regional delivery of water insoluble compounds such as sirolimus and its analogs, including CCl-779, ABT-578 and everolimus, through weeping balloons and catheter injection needles. […] These liquid formulations increase the apparent solubility of the pharmacologically active but water insoluble compounds by two to four orders of magnitude as compared to the solubility limits of the compounds in water. These liquid formulations rely on the use of a very small amount of organic solvents such as Ethanol (typically less than two percent) and a larger amount of safe amphiphilic (of or relating to a molecule having a polar, water soluble group attached to a non-polar, water insoluble […]) excipients such as polyethylene glycol (PEG 200, PEG 400) and vitamin E TPGS to enhance the solubility of the compounds. These liquid formulations of highly water insoluble compounds are stable and readily flowable at room temperature. Certain excipients, such as Vitamin E TPGS and BHT may be utilized to enhance the storage stability of sirolimus compounds through their anti-oxidation properties. […]

Q: For `COc1c(C)c2c(c(O)c1C/C=C(\C)CCC(=O)O)C(=O)OC2` [mycophenolic acid], which “in vivo elution from EVA/BMA basecoat relative to co-loaded drug” value [1] is on record?
A: elutes more completely over a shorter duration than the rapamycin

Q: And the “effect of addition on the anti-proliferative rapamycin dose response curve” value [2]?
A: potentiates the anti-proliferative activity of rapamycin

Q: Which “anti-proliferative IC50's” value (tumor cell lines) does the source give for `CC(/C=C/C(=O)NO)=C\[C@@H](C)C(=O)c1ccc(N(C)C)cc1` [trichostatin A] here?
A: low nM range

Q: And the “inhibition of human coronary artery smooth muscle cell proliferation” value [3]?
A: completely inhibit

Q: And the IC50 ([3]; read-out: anti-proliferative IC50)?
A: ~6 nM

Q: Which “effect of addition to cells treated with rapamycin” value (from here on “effect of addition to cells treated”) ([4]; etoposide 255.7 to eight-hundred nanomolar) does the source give for `COc1cc([C@@H]2c3cc4c(cc3[C@@H](O[C@@H]3O[C@@H]5CO[C@@H](C)O[C@H]5[C@H](O)[C@H]3O)[C@H]3COC(=O)[C@H]23)OCO4)cc(OC)c1O` [etoposide] here?
A: increases the percent inhibition of rapamycin alone

Q: What about the “cytotoxicity in a cell viability assay” value (cell viability; concentrations up to ten micromolar) of the same molecule?
A: non-cytotoxic

Q: Which “in vivo elution from PVDF/HFP (85/15) coating” value [5] does the source give for `Nc1nc(Cl)nc2c1ncn2[C@H]1C[C@H](O)[C@@H](CO)O1` [cladribine, 2-chlorodeoxyadenosine] here?
A: levels off significantly

Q: And the “effect of addition to cells treated” value ([6]; cladribine 56.25 to 900 nanomolar)?
A: increases the percent inhibition of rapamycin alone

Q: What about the “inhibition of human coronary artery smooth muscle cell proliferation” value ([6]; non-synchronized cells, two percent fetal bovine serum) of the same molecule?
A: completely inhibits

Q: And the “in vivo elution from EVA/BMA basecoat with BMA topcoat relative to rapamycin” value [7]?
A: elutes more rapidly than rapamycin

Q: Which results are given for `COc1cc2c(cc1O)CC[C@@H]1[C@@H]2CC[C@]2(C)[C@@H](O)CC[C@@H]12` [Panzem®, 2-methoxyestradiol]?
A: effect of addition to cells treated with rapamycin ([4]; Panzem 0.813 to 100 micromolar): increases the percent of inhibition of rapamycin alone; anti-proliferative activity (FIG. 66, 67) ([4]; in vitro, agent alone): extremely effective inhibitor; MTS assay: cell survival [8]: do not reduce human coronary artery smooth muscle cell survival

Q: Which “effect of addition to cells treated” value ([4]; topotecan 18.8 to 300 nanomolar) does the source give for `CC[C@@]1(O)C(=O)OCc2c1cc1n(c2=O)Cc2cc3c(CN(C)C)c(O)ccc3nc2-1` [topotecan] here?
A: increases the percent inhibition of rapamycin alone

Q: And the “cytotoxicity in a separate cell viability assay” value (cell viability; concentrations up to one micromolar)?
A: non-cytotoxic

Q: What does the source list for `CO[C@H]1C[C@@H]2CC[C@@H](C)[C@@](O)(O2)C(=O)C(=O)N2CCCC[C@H]2C(=O)O[C@H]([C@H](C)C[C@@H]2CC[C@@H](O)[C@H](OC)C2)CC(=O)[C@H](C)/C=C(\C)[C@@H](O)[C@@H](OC)C(=O)[C@H](C)C[C@H](C)/C=C/C=C/C=C/1C` [rapamycin]?
A: in vivo release rate from PVDF basecoat with PVDF topcoat relative to co-loaded drug [9]: slower release rate than that of mycophenolic acid; concentration of sirolimus relative to the solubility of sirolimus in water [10]: four hundred to about one thousand
